Measured values reported in patent US20220249413A1, “SWELL 1 MODULATORS FOR TREATMENT OF NON-ALCOHOLIC FATTY LIVER DISEASE, IMMUNE DEFICIENCIES, MALE INFERTILITY AND VASCULAR DISEASES” (priority 2019, published 2022).

What was measured:
[1] = test system: insulin-AKT2-AS160 signaling; test: Insulin-stimulated pAKT2/pAS160 signaling in 3T3-F442A cells (Western blot); type: cell-based
Protocol: (§1) For Smod1 (DCPIB) mediated induction of SWELL1 and insulin signaling studies in 3T3-F442A preadipocytes, the cells were incubated with either vehicle (DMSO) or 10 μM Smod1 for 96 h. The cells were serum starved for 6 h (+DMSO or Smod1) and stimulated with 0, 3 and 10 nM insulin containing media (−DMSO or Smod1), as described above for 15 mins and the lysates were collected. In the case of 3T3-F442A adipocytes, the WT and KO cells were treated with either vehicle (DMSO) or 10 μM Smod1 following 7-11 days of differentiation for 96 h and then stimulated with 0 and 10 nM insulin for 15 min, as described above. Human embryonic kidney (HEK) cells were cultured and maintained in 90% DMEM (25 mM D-Glucose and 4 mM L-Glutamine) containing 10% fetal bovine serum (FBS) and 100 IU penicillin and 100 μg/ml streptomycin media.
Electrophysiology Patch-clamp recordings of β-cells and mature adipocytes were performed as described previously (Zhang et al., Nat Cell Biol, 19, 504-517, 2017; Kang et al., Nature Communications, 9, 367, 2018). 3T3-F442A WT and KO preadipocytes were prepared as described in the Cell culture section above. For SWELL1 overexpression recordings, preadipocytes were first transduced with Ad5-CAG-LoxP-stop-LoxP-3× Flag-SWELL1 (MOI 12) in 2% FBS culture medium for two days and then overexpression induced by adding Ad5-CMV-Cre-wt-IRES-eGFP (MOI 10-12) in 2% FBS culture medium for two more days and changed to 10% FBS containing culture media and were selected based on GFP expression (˜2-3 days). For 3-cell recordings, islets were transduced with Ad-RIP2-GFP and then dispersed after 48-72 hours for patch-clamp experiments. GFP+ cells marked […] selected for patch-clamp recordings. Recordings were measured using Axopatch 200B amplifier paired to a Digidata 1550 digitizer using pClamp 10.4 software. The extracellular buffer composition for hypotonic stimulation contains 90 mM NaCl, 2 mM CsCl, 1 mM MgCl2, 1 mM CaCl2), 10 mM HEPES, 10 mM Mannitol, pH 7.4 with NaOH (210 mOsm/kg). […] The images were further analyzed for band intensities using ImageJ software. […]

SWELL1 protein = SWELL1 protein expression by Western blot in 3T3-F442A preadipocytes and adipocytes; type: cell-based; conditions: 10 μM applied for 96 hours
Protocol: as §1
(§2) Electrophysiology Patch-clamp recordings of β-cells and mature adipocytes were performed as described previously (Zhang et al., Nat Cell Biol, 19, 504-517, 2017; Kang et al., Nature Communications, 9, 367, 2018). 3T3-F442A WT and KO preadipocytes were prepared as described in the Cell culture section above. […] Recordings were measured using Axopatch 200B amplifier paired to a Digidata 1550 digitizer using pClamp 10.4 software. […] The images were further analyzed for band intensities using ImageJ software. […]

[2] = Traced hyperinsulinemic euglycemic clamp in KKA^y mice; type: in vivo, mouse
ICl,SWELL = molecular target: T1, ICl,SWELL (Homo sapiens, UniProt Q8IWT6); test: ICl,SWELL patch-clamp upon hypotonic stimulation; type: cell-based; conditions: 10 μM Smod1, HEK cells (FIG. 2f)
T1 construct: endogenous in cells; host or cells: HEK cells (printed 'BEK cells')
T1 sequence (Q8IWT6 1-810): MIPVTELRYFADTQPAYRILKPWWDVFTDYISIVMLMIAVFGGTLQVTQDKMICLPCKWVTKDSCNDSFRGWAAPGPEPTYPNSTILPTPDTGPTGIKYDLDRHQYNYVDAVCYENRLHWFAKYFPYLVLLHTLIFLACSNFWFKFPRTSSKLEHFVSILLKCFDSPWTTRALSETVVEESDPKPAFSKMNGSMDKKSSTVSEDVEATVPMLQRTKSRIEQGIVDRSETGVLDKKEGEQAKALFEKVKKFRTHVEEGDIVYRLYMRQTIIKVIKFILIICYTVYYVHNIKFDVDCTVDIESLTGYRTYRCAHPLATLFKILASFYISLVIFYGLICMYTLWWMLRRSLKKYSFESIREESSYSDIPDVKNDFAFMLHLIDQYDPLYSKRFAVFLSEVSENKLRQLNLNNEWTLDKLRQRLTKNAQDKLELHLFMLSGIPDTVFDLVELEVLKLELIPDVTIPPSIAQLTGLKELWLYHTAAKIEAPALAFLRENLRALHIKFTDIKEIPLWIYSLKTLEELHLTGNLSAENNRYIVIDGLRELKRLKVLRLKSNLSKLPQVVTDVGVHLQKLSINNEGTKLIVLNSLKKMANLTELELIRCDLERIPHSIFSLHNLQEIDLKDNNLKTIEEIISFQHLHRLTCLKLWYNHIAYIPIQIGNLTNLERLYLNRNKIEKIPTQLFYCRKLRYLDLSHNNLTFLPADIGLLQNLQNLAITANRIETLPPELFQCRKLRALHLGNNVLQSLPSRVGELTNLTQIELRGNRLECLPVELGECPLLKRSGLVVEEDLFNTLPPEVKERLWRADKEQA
Protocol: as §1, §2

## CCCCC1(C2CCCC2)Cc2cc(OCCCC(=O)O)c(Cl)c(Cl)c2C1=O (stereo not shown) [Smod1, 4-[(2-Butyl-6,7-dichloro-2-cyclopentyl-2,3-dihydro-1-oxo-1H-inden-5-yl)oxy]butanoic acid]
[1]; SWELL1 KO 3T3-F442A adipocytes
  effects on insulin-AKT2-AS160 signaling in SWELL1 KO: absent
[1]; WT 3T3-F442A adipocytes, 10 μM for 96 h
  insulin-stimulated pAS160: enhanced
[1]; WT 3T3-F442A preadipocytes/adipocytes, 10 μM for 96 h
  insulin-stimulated pAKT2: enhanced
SWELL1 protein; 3T3-F442A adipocytes
  increase of SWELL1 protein expression: 1.5 fold
SWELL1 protein; 3T3-F442 preadipocytes
  increase of SWELL1 protein expression: β
[2]; KKA^y mice, 5 mg/kg for 4 days
  glucose-infusion rate (GIR) to maintain euglycemia: 33.58 ± 3.4 mg/kg/min
[2]; KKA^y mice, baseline (basal)
  reduction of hepatic glucose production (Ra): ~1.6 fold
[2]; KKA^y mice, during glucose/insulin infusion (clamp)
  suppression of hepatic glucose production (Ra): 4.8 fold
[2]; brown fat, skeletal muscle, KKA^y mice
  enhancement of insulin stimulated 2-DG uptake: not in brown fat, or skeletal muscle
[2]; inguinal white adipose tissue (iWAT), KKA^y mice
  insulin stimulated 2-DG uptake: 7.0 ± 0.78 nmol/min/g
[2]; liver, adipose and skeletal muscle
  glucose-incorporation into glycogen: markedly increased
[2]; myocardium (Heart), KKA^y mice
  insulin stimulated 2-DG uptake: 451.3 ± 24.63 nmol/min/g
ICl,SWELL
  ICl,SWELL inward and outward current after hypotonic stimulation: inhibition
